Results from patent publication US20170144985A1, “DIAMINOTRIAZINE COMPOUND USEFUL AS HERBICIDE” (BASF SE, priority 2014, published 2017).

Assays:
Assay in all cases: greenhouse pre-emergence herbicidal test
APESV = type: in vivo, Apera spica-venti; conditions: application rate 0.5 kg/ha, scale from 0 to 100, APESV
Text: (§1) The seeds of the test plants were sown separately for each species. For the pre-emergence treatment, the active ingredients, which had been suspended or emulsified in water, were applied directly after sowing by means of finely distributing nozzles. The containers were irrigated gently to promote germination and growth and subsequently covered with transparent plastic hoods until the plants had rooted. This cover caused uniform germination of the test plants, unless this had been impaired by the active ingredients. Depending on the species, the plants were kept at 10-25° C. or 20-35° C., respectively. The test period extended over 2 to 4 weeks. During this time, the plants were tended, and their response to the individual treatments was evaluated. Evaluation was carried out using a scale from 0 to 100. 100 means no emergence of the plants, or complete destruction of at least the aerial moieties, and 0 means no damage, or normal course of growth. A moderate herbicidal activity is given at values of at least 60, a good herbicidal activity is given at values of at least 70, and a very good herbicidal activity is given at values of at least 85. The plants used in the greenhouse experiments were of the following species: [table]

AMARE = type: in vivo, Amaranthus retroflexus; conditions: application rate 0.5 kg/ha, scale from 0 to 100, AMARE
Text: as §1

ALOMY = type: in vivo, Alopecurus myosuroides; conditions: application rate 0.5 kg/ha, scale from 0 to 100, ALOMY
Text: as §1

Question: What does the source list for `Nc1nc(Nc2c(F)c(F)nc(F)c2F)nc(N2CCCC2)n1` [Example 1, 6-pyrrolidin-1-yl-N4-(2,3,5,6-tetrafluoro-4-pyridyl)-1,3,5-triazine-2,4-diamine]?
Answer: herbicidal activity (APESV): very good (a very good herbicidal activity is given at values of at least 85); herbicidal activity (AMARE): very good (a very good herbicidal activity is given at values of at least 85); herbicidal activity (ALOMY): very good (a very good herbicidal activity is given at values of at least 85)
